Test results as given in patent US20230055237A1, “COMPOUNDS AND METHODS FOR THE TREATMENT OF CYSTIC FIBROSIS” (Flatley Discovery Lab, LLC, priority 2019, published 2023).

Target: T1, CFTR (Homo sapiens, UniProt P13569, DEL508-508)
T1 construct: Primary CF airway epithelial cells were obtained from the UNC Cystic Fibrosis Tissue Procurement and Cell Culture Core; host or cells: primary CF airway epithelial cells, differentiated at the air-liquid interface
Assay: Equivalent current assay in primary CF airway epithelial cells (NAUC, combination with 1st site corrector FDL169 or VX-809)
Assay type: cell-based
Settings: 37° C., 24 h

[1] = test compound 1 μM in combination with 1st site corrector FDL169 (3 μM)
[2] = test compound 3 μM in combination with 1st site corrector FDL169 (3 μM)
[3] = test compound 10 μM in combination with 1st site corrector FDL169 (3 μM)

T1 sequence (P13569 with tags, fused parts or gaps DEL508-508): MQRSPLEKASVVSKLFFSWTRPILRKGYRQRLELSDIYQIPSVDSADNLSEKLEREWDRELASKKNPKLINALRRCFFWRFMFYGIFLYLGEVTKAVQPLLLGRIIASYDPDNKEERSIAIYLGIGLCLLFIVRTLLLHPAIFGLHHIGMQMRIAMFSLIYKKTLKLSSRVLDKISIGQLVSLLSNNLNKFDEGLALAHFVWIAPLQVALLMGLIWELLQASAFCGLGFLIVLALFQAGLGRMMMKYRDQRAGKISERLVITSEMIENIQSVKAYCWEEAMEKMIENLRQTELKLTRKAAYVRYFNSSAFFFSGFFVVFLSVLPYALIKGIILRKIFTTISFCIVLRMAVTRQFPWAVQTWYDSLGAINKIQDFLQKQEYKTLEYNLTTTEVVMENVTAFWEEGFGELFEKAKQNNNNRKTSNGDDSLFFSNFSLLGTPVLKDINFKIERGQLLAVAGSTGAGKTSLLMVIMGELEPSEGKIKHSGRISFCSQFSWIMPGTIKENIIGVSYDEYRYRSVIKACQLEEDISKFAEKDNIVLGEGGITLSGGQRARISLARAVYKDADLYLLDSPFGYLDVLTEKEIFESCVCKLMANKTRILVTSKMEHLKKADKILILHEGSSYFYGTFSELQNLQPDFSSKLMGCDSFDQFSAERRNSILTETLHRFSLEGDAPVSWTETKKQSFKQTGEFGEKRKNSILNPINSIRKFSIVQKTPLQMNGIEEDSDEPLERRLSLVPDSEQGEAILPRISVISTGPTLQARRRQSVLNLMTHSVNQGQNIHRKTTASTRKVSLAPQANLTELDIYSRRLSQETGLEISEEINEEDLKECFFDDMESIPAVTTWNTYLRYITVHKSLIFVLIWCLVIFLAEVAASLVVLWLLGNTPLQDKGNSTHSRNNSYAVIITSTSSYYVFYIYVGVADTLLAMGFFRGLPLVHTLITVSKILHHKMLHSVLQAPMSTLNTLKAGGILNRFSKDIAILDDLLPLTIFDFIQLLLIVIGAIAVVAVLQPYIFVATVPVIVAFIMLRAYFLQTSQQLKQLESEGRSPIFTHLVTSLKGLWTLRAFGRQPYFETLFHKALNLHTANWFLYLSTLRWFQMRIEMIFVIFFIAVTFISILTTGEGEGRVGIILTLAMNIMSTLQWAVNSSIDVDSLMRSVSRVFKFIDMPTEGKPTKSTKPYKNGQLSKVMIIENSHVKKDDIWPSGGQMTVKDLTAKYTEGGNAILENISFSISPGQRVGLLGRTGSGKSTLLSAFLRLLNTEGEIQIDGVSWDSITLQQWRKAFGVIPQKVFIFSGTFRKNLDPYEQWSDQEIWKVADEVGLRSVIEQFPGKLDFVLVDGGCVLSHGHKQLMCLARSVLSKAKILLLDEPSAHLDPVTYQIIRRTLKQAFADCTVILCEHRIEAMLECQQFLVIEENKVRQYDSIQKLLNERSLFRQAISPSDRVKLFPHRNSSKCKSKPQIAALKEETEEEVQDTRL

Compound	Nauc @ 1 μM [1]	Nauc @ 3 μM [2]	Nauc @ 10 μM [3]	Nauc @ 1 μM (test compound 1 μM in combination with 1st site corrector VX-809 (3 μM))	Nauc @ 3 μM (test compound 3 μM in combination with 1st site corrector VX-809 (3 μM))	Nauc @ 10 μM (test compound 10 μM in combination with 1st site corrector VX-809 (3 μM))
CCCN(C(=O)[C@H]1[C@H]2CC(F)(F)CN2[C@]2(C(=O)Nc3c(Cl)cc(Cl)cc32)[C@H]1C(=O)O)c1cc(Cl)cc(Cl)c1 [Example 172]	+++ (NAUC “+++” refers to an observed NAUC>170% of positive control)	+++ (NAUC “+++” refers to an observed NAUC>170% of positive control)	+++ (NAUC “+++” refers to an observed NAUC>170% of positive control)	–	–	–
O=C(O)[C@H]1[C@@H](C(=O)N(CC2CC2)c2cc(Cl)cc(Cl)c2)[C@H]2CC(F)(F)CN2[C@]12C(=O)Nc1c(Cl)cc(Cl)cc12 [Example 173]	+++ (NAUC “+++” refers to an observed NAUC>170% of positive control)	+++ (NAUC “+++” refers to an observed NAUC>170% of positive control)	+ (NAUC “+” refers to an observed NAUC <140% of positive control)	–	–	–
CC(C)N(C(=O)[C@H]1[C@H]2CC(F)(F)CN2[C@]2(C(=O)Nc3c(Cl)cc(Cl)cc32)[C@H]1C(=O)O)c1cc(Cl)cc(Cl)c1 [Example 174]	+++ (NAUC “+++” refers to an observed NAUC>170% of positive control)	+++ (NAUC “+++” refers to an observed NAUC>170% of positive control)	+++ (NAUC “+++” refers to an observed NAUC>170% of positive control)	–	–	–
O=C(O)[C@H]1[C@@H](C(=O)N(c2cc(Cl)cc(Cl)c2)C2CCCC2)[C@H]2CC(F)(F)CN2[C@]12C(=O)Nc1c(Cl)cc(Cl)cc12 [Example 175]	+++ (NAUC “+++” refers to an observed NAUC>170% of positive control)	+++ (NAUC “+++” refers to an observed NAUC>170% of positive control)	+++ (NAUC “+++” refers to an observed NAUC>170% of positive control)	–	–	–
CN(C(=O)[C@H]1[C@H]2CC(F)(F)CN2[C@]2(C(=O)Nc3c(Cl)cc(Cl)cc32)[C@H]1C(=O)O)c1ccccc1C(F)(F)F [Example 176]	+++ (NAUC “+++” refers to an observed NAUC>170% of positive control)	+++ (NAUC “+++” refers to an observed NAUC>170% of positive control)	–	–	–	–
O=C(O)[C@H]1[C@@H](C(=O)N(CC2CCCCC2)c2cc(Cl)cc(Cl)c2)[C@H]2CC(F)(F)CN2[C@]12C(=O)Nc1c(Cl)cc(Cl)cc12 [Example 177]	+++ (NAUC “+++” refers to an observed NAUC>170% of positive control)	++ (NAUC “++” refers to an observed NAUC 170-140% of positive control)	++ (NAUC “++” refers to an observed NAUC 170-140% of positive control)	–	–	–
O=C(O)[C@H]1[C@@H](C(=O)N(CC2CCCCCC2)c2cc(Cl)cc(Cl)c2)[C@H]2CC(F)(F)CN2[C@]12C(=O)Nc1c(Cl)cc(Cl)cc12 [Example 178]	+++ (NAUC “+++” refers to an observed NAUC>170% of positive control)	+++ (NAUC “+++” refers to an observed NAUC>170% of positive control)	++ (NAUC “++” refers to an observed NAUC 170-140% of positive control)	–	–	–
COc1c(Cl)cc(N(C)C(=O)[C@H]2[C@H]3CC(F)(F)CN3[C@]3(C(=O)Nc4c(Cl)cc(Cl)cc43)[C@H]2C(=O)O)cc1Cl [Example 179]	++ (NAUC “++” refers to an observed NAUC 170-140% of positive control)	++ (NAUC “++” refers to an observed NAUC 170-140% of positive control)	+++ (NAUC “+++” refers to an observed NAUC>170% of positive control)	–	–	–
O=C(O)[C@H]1[C@@H](C(=O)N(CC2CC2)c2ccccc2-c2ccccc2)[C@H]2CC(F)(F)CN2[C@]12C(=O)Nc1c(Cl)cc(Cl)cc12 [Example 180]	+++ (NAUC “+++” refers to an observed NAUC>170% of positive control)	+++ (NAUC “+++” refers to an observed NAUC>170% of positive control)	+ (NAUC “+” refers to an observed NAUC <140% of positive control)	–	–	–
O=C(O)[C@H]1[C@@H](C(=O)N(CC2CCCC2)c2cccc(C(F)(F)F)c2)[C@H]2CC(F)(F)CN2[C@]12C(=O)Nc1c(Cl)cc(Cl)cc12 [Example 181]	++ (NAUC “++” refers to an observed NAUC 170-140% of positive control)	+++ (NAUC “+++” refers to an observed NAUC>170% of positive control)	–	–	–	–
CC(C)(C)CCN(C(=O)[C@H]1[C@H]2CC(F)(F)CN2[C@]2(C(=O)Nc3c(Cl)cc(Cl)cc32)[C@H]1C(=O)O)c1cc(Cl)cc(Cl)c1 [Example 182]	+++ (NAUC “+++” refers to an observed NAUC>170% of positive control)	++ (NAUC “++” refers to an observed NAUC 170-140% of positive control)	–	–	–	–
CC(C)(C)C(C)(C)CN(C(=O)[C@H]1[C@H]2CC(F)(F)CN2[C@]2(C(=O)Nc3c(Cl)cc(Cl)cc32)[C@H]1C(=O)O)c1cc(Cl)cc(Cl)c1 [Example 185]	+++ (NAUC “+++” refers to an observed NAUC>170% of positive control)	+++ (NAUC “+++” refers to an observed NAUC>170% of positive control)	+ (NAUC “+” refers to an observed NAUC <140% of positive control)	–	–	–
O=C(O)[C@H]1[C@@H](C(=O)N(CC23CC(F)(C2)C3)c2cc(Cl)cc(Cl)c2)[C@H]2CC(F)(F)CN2[C@]12C(=O)Nc1c(Cl)cc(Cl)cc12 [Example 188]	+++ (NAUC “+++” refers to an observed NAUC>170% of positive control)	++ (NAUC “++” refers to an observed NAUC 170-140% of positive control)	++ (NAUC “++” refers to an observed NAUC 170-140% of positive control)	–	–	–
O=C(O)[C@H]1[C@@H](C(=O)N(CC2CC2)c2cccc(C3(C(F)(F)F)CC3)c2)[C@H]2CC(F)(F)CN2[C@]12C(=O)Nc1c(Cl)cc(Cl)cc12 [Example 189]	++ (NAUC “++” refers to an observed NAUC 170-140% of positive control)	+ (NAUC “+” refers to an observed NAUC <140% of positive control)	–	–	–	–
O=C(O)[C@H]1[C@@H](C(=O)N(CC23CC4CC(CC(C4)C2)C3)c2cc(Cl)cc(Cl)c2)[C@H]2CC(F)(F)CN2[C@]12C(=O)Nc1c(Cl)cc(Cl)cc12 [Example 194]	++ (NAUC “++” refers to an observed NAUC 170-140% of positive control)	+++ (NAUC “+++” refers to an observed NAUC>170% of positive control)	–	–	–	–
CN(C(=O)[C@H]1[C@H]2CC(F)(F)CN2[C@]2(C(=O)N(C)c3c(Cl)cc(Cl)cc32)[C@H]1C(=O)O)c1cc(Cl)cc(Cl)c1 [Example 200, (1′R,2′S,3R,7a′R)-5,7-dichloro-1-((3,5-dichlorophenyl)(methyl)carbamoyl)-6′,6′-difluoro-1-methyl-2-oxo-1′,2′,5′,6′,7′,7a′-hexahydrospiro[indoline-3,3′-pyrrolizine]-2′-carboxylic acid]	++ (NAUC “++” refers to an observed NAUC 170-140% of positive control)	++ (NAUC “++” refers to an observed NAUC 170-140% of positive control)	++ (NAUC “++” refers to an observed NAUC 170-140% of positive control)	+++ (NAUC “+++” refers to an observed NAUC>170% of positive control)	+++ (NAUC “+++” refers to an observed NAUC>170% of positive control)	+++ (NAUC “+++” refers to an observed NAUC>170% of positive control)
CN(C(=O)[C@H]1[C@H]2CC(F)(F)CN2[C@]2(C(=O)N(CC3CC3)c3c(Cl)cc(Cl)cc32)[C@H]1C(=O)O)c1cc(Cl)cc(Cl)c1 [Example 201]	+ (NAUC “+” refers to an observed NAUC <140% of positive control)	+ (NAUC “+” refers to an observed NAUC <140% of positive control)	–	–	–	–
CN1C(=O)[C@]2(c3cc(Cl)cc(Cl)c31)[C@@H](C(=O)O)[C@@H](C(=O)N(CC1CC1)c1cc(Cl)cc(Cl)c1)[C@H]1CC(F)(F)CN12 [Example 202]	++ (NAUC “++” refers to an observed NAUC 170-140% of positive control)	++ (NAUC “++” refers to an observed NAUC 170-140% of positive control)	+ (NAUC “+” refers to an observed NAUC <140% of positive control)	–	–	–
COCCN1C(=O)[C@]2(c3cc(Cl)cc(Cl)c31)[C@@H](C(=O)O)[C@@H](C(=O)N(CC1CC1)c1cc(Cl)cc(Cl)c1)[C@H]1CC(F)(F)CN12 [Example 203]	+ (NAUC “+” refers to an observed NAUC <140% of positive control)	+ (NAUC “+” refers to an observed NAUC <140% of positive control)	–	–	–	–
CN(C)C(=O)CN1C(=O)[C@]2(c3cc(Cl)cc(Cl)c31)[C@@H](C(=O)O)[C@@H](C(=O)N(CC1CC1)c1cc(Cl)cc(Cl)c1)[C@H]1CC(F)(F)CN12 [Example 205]	+ (NAUC “+” refers to an observed NAUC <140% of positive control)	++ (NAUC “++” refers to an observed NAUC 170-140% of positive control)	++ (NAUC “++” refers to an observed NAUC 170-140% of positive control)	–	–	–
CN1C(=O)[C@]2(c3cc(Cl)cc(Cl)c31)[C@@H](C(=O)O)[C@@H](C(=O)N(CC(C)(C)C)c1cc(Cl)cc(Cl)c1)[C@H]1CC(F)(F)CN12 [Example 207]	++ (NAUC “++” refers to an observed NAUC 170-140% of positive control)	++ (NAUC “++” refers to an observed NAUC 170-140% of positive control)	–	–	–	–
